# Assay results as given in patent US20260306527A1, “PRMT INHIBITOR COMPOUNDS AND THE USES THEREOF” (Purdue Research Foundation, priority 2023, published 2026).
# Read-outs that look alike come from different tables or passages of the source.
# Key:
# Type in all cases: biochemical
# PRMT6 = PRMT6 (Homo sapiens, UniProt Q96LA8); test: radioactive assay (Reaction Biology Corp.), inhibition of PRMT6
# Experimental: (§1) Next, the inhibition activity of the library was investigated for five PRMT members from type I PRMTs.
# (§2) The PRMT 4, 6 and 8 methylation assays were performed by Reaction Biology corp.
# PRMT3 [1] = test: SAHH-coupled fluorescence assay, inhibition of PRMT3
# Experimental: A fluorescence-based SAHH-coupled assay was applied to study the inhibition activity of all synthesized compounds on PRMT 1 and 3.
# (§3) The PRMT3 methylation assay was performed under the following conditions in a final well volume of 100 μL: 20 mM Tris (pH=7.5), 0.01% Triton X-100, 5 μM SAHH, 0.25 μM PRMT3, 30 μM AdoMet, and 15 μM ThioGlo4. […] Fluorescence was monitored on a BMG CLARIOstar microplate reader with excitation 380 nm and emission 505 nm. Data were processed by using GraphPad Prism software 8.0. All experiments were performed in duplicate.
# as §1
# as §3, with “8.0.” for “8.0. All experiments were performed in duplicate.”
# PRMT8 = PRMT8 (Homo sapiens, UniProt Q9NR22); test: radioactive assay (Reaction Biology Corp.), inhibition of PRMT8
# Chain of PRMT8 (Q9NR22 whole entry, species assumed): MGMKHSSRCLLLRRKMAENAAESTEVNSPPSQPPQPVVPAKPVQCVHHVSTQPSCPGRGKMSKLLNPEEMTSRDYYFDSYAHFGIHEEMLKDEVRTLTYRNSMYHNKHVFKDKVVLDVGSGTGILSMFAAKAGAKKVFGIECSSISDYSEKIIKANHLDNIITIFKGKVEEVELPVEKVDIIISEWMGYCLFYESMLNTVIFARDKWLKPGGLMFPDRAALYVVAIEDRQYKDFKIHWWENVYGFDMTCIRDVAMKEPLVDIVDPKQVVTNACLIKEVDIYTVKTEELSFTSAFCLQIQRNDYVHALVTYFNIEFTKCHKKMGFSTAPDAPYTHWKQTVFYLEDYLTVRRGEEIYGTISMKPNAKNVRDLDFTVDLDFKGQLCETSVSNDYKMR
# Experimental: as §1, §2
# PRMT4 = target: T1, PRMT4 (Homo sapiens, UniProt Q86X55); test: radioactive assay (Reaction Biology Corp.), inhibition of PRMT4
# T1 sequence (Q86X55 1-608): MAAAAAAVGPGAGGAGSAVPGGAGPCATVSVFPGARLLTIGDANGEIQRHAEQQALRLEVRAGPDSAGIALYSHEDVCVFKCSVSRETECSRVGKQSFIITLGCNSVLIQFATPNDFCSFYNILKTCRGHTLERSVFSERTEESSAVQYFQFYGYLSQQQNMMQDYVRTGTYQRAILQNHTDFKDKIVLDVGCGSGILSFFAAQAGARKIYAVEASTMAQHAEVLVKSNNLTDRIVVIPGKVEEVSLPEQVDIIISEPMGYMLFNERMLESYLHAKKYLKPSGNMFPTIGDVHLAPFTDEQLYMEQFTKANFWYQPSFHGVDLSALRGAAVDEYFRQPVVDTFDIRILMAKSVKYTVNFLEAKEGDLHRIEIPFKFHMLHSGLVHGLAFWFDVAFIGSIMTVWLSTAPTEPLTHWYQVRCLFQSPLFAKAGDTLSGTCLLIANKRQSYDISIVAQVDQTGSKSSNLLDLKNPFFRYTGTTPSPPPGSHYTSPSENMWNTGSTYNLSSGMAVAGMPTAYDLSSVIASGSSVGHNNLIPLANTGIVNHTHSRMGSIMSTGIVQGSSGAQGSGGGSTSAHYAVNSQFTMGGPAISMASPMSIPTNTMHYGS
# Experimental: as §1, §2
# PRMT3 [2] = target: PRMT3 (Homo sapiens, UniProt O60678); test: SAHH-coupled fluorescence assay, inhibition of PRMT3; design: PRMT3 (residues 211-531) was cloned into the pET28a-MHL expression vector; tag of the pET28a-MHL vector (not described); made in house; host or cells: Escherichia coli BL21(DE3)
# Chain of PRMT3 (Homo sapiens, UniProt O60678) (O60678 211-531): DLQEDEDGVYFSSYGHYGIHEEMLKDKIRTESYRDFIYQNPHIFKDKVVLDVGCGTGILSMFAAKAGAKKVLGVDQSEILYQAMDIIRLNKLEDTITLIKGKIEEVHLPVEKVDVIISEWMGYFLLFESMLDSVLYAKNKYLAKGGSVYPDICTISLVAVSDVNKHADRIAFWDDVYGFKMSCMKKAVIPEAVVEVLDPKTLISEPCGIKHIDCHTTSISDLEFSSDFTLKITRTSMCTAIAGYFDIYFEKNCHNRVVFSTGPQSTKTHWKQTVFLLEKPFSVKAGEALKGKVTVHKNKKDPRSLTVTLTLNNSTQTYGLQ
# How it was run: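 Coupled SAHH/ThioGlo4 fluorescence read-out (ex 380 nm, em 505 nm) of PRMT3 (0.25 μM) methylation with 30 μM AdoMet and 5 μM SAHH. Buffer was 20 mM Tris pH 7.5 with 0.01% Triton X-100. Run in duplicate.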
# PRMT1 = target: T2, PRMT1 (Homo sapiens, UniProt Q99873); test: SAHH-coupled fluorescence assay, inhibition of PRMT1
# T2 construct: made in house
# T2 sequence (Q99873 whole entry, species assumed): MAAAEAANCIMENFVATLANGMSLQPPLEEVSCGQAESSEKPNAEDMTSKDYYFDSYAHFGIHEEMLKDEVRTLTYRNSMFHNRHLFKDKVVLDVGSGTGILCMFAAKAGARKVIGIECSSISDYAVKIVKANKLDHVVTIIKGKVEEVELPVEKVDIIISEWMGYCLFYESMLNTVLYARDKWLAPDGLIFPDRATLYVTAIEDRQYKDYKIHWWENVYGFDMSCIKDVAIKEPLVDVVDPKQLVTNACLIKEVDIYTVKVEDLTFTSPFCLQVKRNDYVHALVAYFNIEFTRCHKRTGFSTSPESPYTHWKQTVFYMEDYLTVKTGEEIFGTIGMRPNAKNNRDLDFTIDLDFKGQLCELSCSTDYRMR
# How it was run: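 PRMT1 (0.1 μM) was run with 10 μM AdoMet, 5 μM SAHH and 10 μM ThioGlo4 in 2.5 mM HEPES pH 7.0, 25 mM NaCl, 25 μM EDTA, 50 μM TCEP and 0.01% Triton X-100. Fluorescence (ex 400/em 465 nm) was monitored for 15 min. Assays were done in duplicate.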
# Chain of PRMT6 (Q96LA8 whole entry, species assumed): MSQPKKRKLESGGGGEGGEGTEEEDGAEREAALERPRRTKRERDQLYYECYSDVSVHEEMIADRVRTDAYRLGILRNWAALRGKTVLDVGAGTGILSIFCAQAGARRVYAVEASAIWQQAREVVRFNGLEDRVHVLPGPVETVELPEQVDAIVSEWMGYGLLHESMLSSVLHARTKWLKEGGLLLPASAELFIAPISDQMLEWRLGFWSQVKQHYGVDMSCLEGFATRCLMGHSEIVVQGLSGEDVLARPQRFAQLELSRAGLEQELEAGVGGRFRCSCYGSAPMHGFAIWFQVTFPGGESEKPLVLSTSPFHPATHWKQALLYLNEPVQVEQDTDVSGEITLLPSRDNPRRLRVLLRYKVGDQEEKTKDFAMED
inhibition at 10 µM (PRMT6) [%],IC50 (PRMT3 [1]; read-out: IC50[μM] | PRMT3) [µM],inhibition at 10 µM (PRMT8) [%],inhibition at 10 µM (PRMT4) [%],inhibition at 10 µM (PRMT3 [2]) [%],inhibition at 10 µM (PRMT1) [%],IC50 (PRMT1; read-out: IC50[μM] | PRMT1) [µM],IC50 (PRMT3 [1]; read-out: IC50 [µM] | PRMT3) [µM],fold decrease in PRMT3 inhibition (PRMT3 [2]; 1d (2C-atom linker) vs II710) [fold],PRMT6 inhibition (PRMT6; 10 μM),fold reduction of PRMT3 inhibition vs YD1113 (PRMT3 [2]; vs YD1113) [fold],IC50 (PRMT1; read-out: IC50 FOR PRMT1) [µM],Structure (SMILES)
17,–,1,88,78,17,–,2 ± 0.23,–,inactive to PRMT6,4,–,"Nc1ncnc2c1ncn2[C@@H]1O[C@H](CSCCNC(=O)Nc2ccc(F)cc2)[C@@H](O)[C@H]1O [Compound 7j, 1-(2-((((2S,3S,4R,5R)-5-(6-amino-9H-purin-9-yl)-3,4-dihydroxytetrahydrofuran-2-yl)methyl)thio)ethyl)-3-(4-fluorophenyl)urea]"
73,–,69,23,13,86,–,–,–,–,–,1.2 ± 0.052,N=C(NCCCSC[C@H]1O[C@@H](n2cnc3c(NCCCc4ccccc4)ncnc32)[C@H](O)[C@@H]1O)NC1CC1 [Compound 19b]
82,–,58,100,12,1,–,–,–,–,–,–,Nc1ncnc2c1ncn2[C@@H]1O[C@H](CSCCNCc2cccc(-c3cccc4cn[nH]c34)c2)[C@@H](O)[C@H]1O [Compound 10h]
-2,–,-2,53,13,11,–,–,–,–,–,–,Nc1ncnc2c1ncn2[C@@H]1O[C@H](CSCCNC(=O)NCc2ccc(-c3ccccc3O)cc2)[C@@H](O)[C@H]1O [Compound 8e]
7,–,-4,49,5,13,–,–,–,–,–,–,"Nc1ncnc2c1ncn2[C@@H]1O[C@H](CSCCNC(=O)NCCCc2ccccc2)[C@@H](O)[C@H]1O [Compound 7b, 1-(2-((((2S,3S,4R,5R)-5-(6-amino-9H-purin-9-yl)-3,4-dihydroxytetrahydrofuran-2-yl)methyl)thio)ethyl)-3-(3-phenylpropyl)urea]"
49,–,-12,58,9,23,–,–,–,–,–,–,N=C(NCCCSC[C@H]1O[C@@H](n2cnc3c(N)ncnc32)[C@H](O)[C@@H]1O)Nc1cccc(F)c1 [Compound 7s]
10,–,39,35,5,5,–,–,–,–,–,–,Nc1ncnc2c1ncn2[C@@H]1O[C@H](CSCCOc2ccc(-c3ccccc3O)cc2)[C@@H](O)[C@H]1O [Compound 14g]

# More lines, now with the values behind:
Structure (SMILES),inhibition at 10 µM (PRMT6) [%],IC50 (PRMT3 [1]; read-out: IC50[μM] | PRMT3) [µM],inhibition at 10 µM (PRMT8) [%],inhibition at 10 µM (PRMT4) [%],inhibition at 10 µM (PRMT3 [2]) [%],inhibition at 10 µM (PRMT1) [%],IC50 (PRMT1; read-out: IC50[μM] | PRMT1) [µM],IC50 (PRMT3 [1]; read-out: IC50 [µM] | PRMT3) [µM],fold decrease in PRMT3 inhibition (PRMT3 [2]; 1d (2C-atom linker) vs II710) [fold],PRMT6 inhibition (PRMT6; 10 μM),fold reduction of PRMT3 inhibition vs YD1113 (PRMT3 [2]; vs YD1113) [fold],IC50 (PRMT1; read-out: IC50 FOR PRMT1) [µM]
N=C(NCCCSC[C@H]1O[C@@H](n2cnc3c(N)ncnc32)[C@H](O)[C@@H]1O)Nc1cccc(-c2ccc(C(F)(F)F)cc2)c1 [Compound 6h],97,5.7 ± 0.68,99,100,57,88,0.25 ± 0.051,–,–,–,–,–
N=C(NCCCSC[C@H]1O[C@@H](n2cnc3c(N)ncnc32)[C@H](O)[C@@H]1O)Nc1cccc(-c2ccc3c(c2)OCCO3)c1 [Compound 6g],98,3.2 ± 0.47,99,100,64,87,0.21 ± 0.023,–,–,–,–,–
N=C(NCCSC[C@H]1O[C@@H](n2cnc3c(N)ncnc32)[C@H](O)[C@@H]1O)Nc1cccc(-c2cccc(F)c2)c1 [Compound 6d],67,18 ± 2.1,81,100,26,68,4.9 ± 0.11,–,–,–,–,–
N=C(NCCCSC[C@H]1O[C@@H](n2cnc3c(N)ncnc32)[C@H](O)[C@@H]1O)Nc1cccc(-c2cccnc2)c1 [Compound 6m],93,14 ± 3.1,96,100,22,88,0.9 ± 0.17,–,–,–,–,–
N=C(NCCCSC[C@H]1O[C@@H](n2cnc3c(N)ncnc32)[C@H](O)[C@@H]1O)Nc1cccc(-c2cccc(F)c2)c1 [Compound 6j],97,4.7 ± 0.83,99,100,45,96,0.26 ± 0.057,–,–,–,–,–
N=C(NCCSC[C@H]1O[C@@H](n2cnc3c(N)ncnc32)[C@H](O)[C@@H]1O)Nc1cccc(-c2ccoc2)c1 [Compound 6c],76,8.3 ± 0.34,82,100,48,84,1.5 ± 0.12,–,–,–,–,–
N=C(NCCSC[C@H]1O[C@@H](n2cnc3c(N)ncnc32)[C@H](O)[C@@H]1O)Nc1cccc(-c2ccc(Cl)cc2)c1 [Compound 6a],91,5.9 ± 0.34,97,100,62,89,0.21 ± 0.054,–,–,–,–,–
N=C(NCCSC[C@H]1O[C@@H](n2cnc3c(N)ncnc32)[C@H](O)[C@@H]1O)NCc1ccccc1 [Compound 5a],93,–,76,99,57,86,1 ± 0.065,33 ± 4.3,3,–,–,–
N=C(NCCCSC[C@H]1O[C@@H](n2cnc3c(N)ncnc32)[C@H](O)[C@@H]1O)Nc1ccccc1 [Compound 5d],99,7.2 ± 0.61,98,99,54,94,0.17 ± 0.011,–,–,–,–,–
N=C(NCCCSC[C@H]1O[C@@H](n2cnc3c(N)ncnc32)[C@H](O)[C@@H]1O)Nc1cccc(-c2ccc(Cl)cc2)c1 [Compound 6f],97,1.8 ± 0.23,100,100,76,92,0.2 ± 0.031,–,–,–,–,–
N=C(NCCCSC[C@H]1O[C@@H](n2cnc3c(N)ncnc32)[C@H](O)[C@@H]1O)Nc1cccc(-c2cncnc2)c1 [Compound 6o],96,25 ± 5,95,100,5,102,0.45 ± 0.11,–,–,–,–,–
N=C(NCCSC[C@H]1O[C@@H](n2cnc3c(N)ncnc32)[C@H](O)[C@@H]1O)Nc1cccc(-c2ccc(C(F)(F)F)cc2)c1 [Compound 6b],91,12 ± 0.83,94,100,42,83,1.8 ± 0.17,–,–,–,–,–
N=C(NCCCSC[C@H]1O[C@@H](n2cnc3c(N)ncnc32)[C@H](O)[C@@H]1O)Nc1cccc(-c2ccc(F)nc2)c1 [Compound 6n],99,4.2 ± 0.61,100,100,61,91,0.35 ± 0.073,–,–,–,–,–
